From patent US4937390A, “Compound useful for the production of 3-deoxy-3-fluoro-myo-inositol” (University of Pittsburgh, priority 1989, dated 1990)

Key:
myo-inositol transporter = biological target: T1, myo-inositol transporter (Rattus norvegicus, UniProt Q80WA5); experiment: [3H]myo-inositol uptake by the myo-inositol transporter in PC12 cells; format: cell-based; conditions: for block of [3H]myo-inositol uptake / Maximal Transport Rate Vmax / Ki: PC12 cells; for Maximal Transport Rate Vmax: in the presence of 1 mM analog; for Ki: uptake studies in the presence of a fixed concentration (1 mM) of analog, read-out: Affinity Constant K (Ki of the analog)
T1 construct: PC12 cells were gently detached and maintained in a suspension culture; endogenous in cells; host or cells: PC12 cells
T1 sequence (Q80WA5 1-718): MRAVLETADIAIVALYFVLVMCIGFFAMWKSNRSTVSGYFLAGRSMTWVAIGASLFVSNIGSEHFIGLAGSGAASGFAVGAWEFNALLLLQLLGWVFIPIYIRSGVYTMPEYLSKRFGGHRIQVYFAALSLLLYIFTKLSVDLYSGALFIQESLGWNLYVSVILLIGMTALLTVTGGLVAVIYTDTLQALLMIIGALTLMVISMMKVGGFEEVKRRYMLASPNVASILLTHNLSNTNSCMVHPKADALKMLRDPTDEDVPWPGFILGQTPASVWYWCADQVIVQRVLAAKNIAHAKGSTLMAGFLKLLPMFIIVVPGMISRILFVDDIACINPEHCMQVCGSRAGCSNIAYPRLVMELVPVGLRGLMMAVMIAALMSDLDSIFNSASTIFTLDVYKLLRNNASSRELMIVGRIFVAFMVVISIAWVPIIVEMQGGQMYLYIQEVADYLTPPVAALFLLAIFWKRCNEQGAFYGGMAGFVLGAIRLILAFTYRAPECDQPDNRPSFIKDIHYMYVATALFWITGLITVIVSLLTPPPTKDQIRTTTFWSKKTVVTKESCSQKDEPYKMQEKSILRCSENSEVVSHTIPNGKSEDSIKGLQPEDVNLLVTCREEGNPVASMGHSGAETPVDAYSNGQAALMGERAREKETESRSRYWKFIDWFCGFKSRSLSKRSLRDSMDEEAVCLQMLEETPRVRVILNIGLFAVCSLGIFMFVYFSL
Procedure: To determine if the effect of the fluoro-myo-inositol analogs might be mediated by the blockade of the myo-inositol transporter, which is responsible for uptake and accumulation of myo-inositol into the cell, the ability of these two compounds to block [^3 H]myo-inositol transport was studied directly.
The uptake of [^3 H]myo-inositol by the myo-inositol transporter was determined as follows:
PC12 cells were gently detached and maintained in a suspension culture in RPMI medium (both myo-inositol and serum free) at 37° C. ]^3 H]myo-inositol was added to this culture at a concentration of 1μCi/ml. Aliquots of this suspension were removed at the indicated time, diluted in 10 volumes of ice-cold PBS containing 10 mM unlabelled myo-inositol to stop the uptake process, centrifuged at 4° C. for 20 minutes at 50 xg. The cell pellet, which contained the transported [^3 H]myo-inositol, was dissolved in dilute NaOH and the radioactivity quantified by liquid scintillation counting.
The […] and Vmax of myoinositol were determined from LineweaverBurke plots
of the uptake of [^3 H]myoinositol (25 nM) in the presence of
increasing concentrations of unlabeled myoinositol in PC12 cells. The Ki
of the two fluoromyo-inositol analogs was determined by conducting the
uptake studies in the presence of a fixed concentration (1 mM) of each

PC12 cells [1] = experiment: Uptake and incorporation of [3H]myo-inositol into PC12 cells following treatment with inositol analogs; format: cell-based, rat; conditions: for Bound [3H]myo-inositol (incorporated into membranes) / Free [3H]myo-inositol (cytoplasm): one hour [3H]myo-inositol
Procedure: Since myo-inositol must be incorporated into the cellular plasma membranes in order for it to serve its role as a second messenger, we therefore verified the ability of the 1- and 3-fluoro-myo-inositol analogs to perturb the incorporation of myo-inositol into cellular plasma membranes by the enzyme […] CDP-diacylglycerol-inositol phosphatidylytransferase (phosphatidylinositolsynthesis).
These tests were conducted by treating cells for either 1, 3, 5, or 7 days with the myo-inositol analogs, followed by a brief exposure to radiolabeled myo-inositol ([^3 H]myo-inositol). The extent of incorporation of tritiated myo-inositol would, therefore, reflect the extent to which phosphatidylinositol and its phosphorylated analogs are deficient in the cellular plasma membranes.
Cells were grown as described hereinabove. Twenty-four hours after plating, the medium was changed and cells were exposed to either inositol free medium (Control 2) or medium containing either the 1- or the 3-fluoro-myo-inositol analog. At four different time points --1, 3, 5, and 7 days--cells were tested for their ability to incorporate radiolabeled [^3 H]myo-inositol. This test was conducted by removing the medium and replacing it with RPMI medium (both myo-inositol and serum free) containing only [^3 H]myo-inositol. The cells were exposed to this medium for a period of one hour, following which they were washed three times with phosphate-buffered saline containing excess unlabeled myo-inositol (10 mM). Cells were lysed by treatment with trichloroacetic acid (TCA) and sonicated to insure complete disruption. The cellular homogenate was then collected and spun in a microfuge tube at 12,000 r.p.m. for 15 min. Samples from both the pellet and supernatant were then obtained and the levels of radioactivity in each were determined. Radioactivity in the supernatant corresponded to the amount of free [^3 H]myo-inositol in the cytoplasm of the cell, whereas the radioactivity present in the TCA-precipated pellet represented [^3 H]myo-inositol incorporated into the cellular plasma membranes.
Cells were treated for the indicated time periods with the inositol
analogs, and then exposed for one hour to [^3 H]myoinositol. Numbers
represent DPM/10^6 cells.

PC12 cells [2] = experiment: Effect on cell size (protein per cell, Lowry) in PC12 cells; format: cell-based, rat; conditions: for effect on cell cycle / cell division: chronically treated PC12 cells
Source text: As cells grow in culture, the size of an individual cell varies in a fairly predictable way. The size of a cell can be expressed as the amount of protein present per cell. […] Immediately after mitosis, the cell size drops considerably, frequently to levels approximately half of the pre-mitotic level.
By investigating the size of a cell, it is possible to determine at which point within the cell cycle inhibitors of cell replication are exerting their effects. Accordingly, we investigated the effect of the 1- and 3-fluoro-myo-inositol analogs on the size of cells chronically treated with such analogs.
Cells were grown and treated with 1- and 3-fluoro-myo-inositol analogs as described in Example XIII. On the days indicated, cells were gently harvested without disruption, and the number of cells counted in triplicate in a cell counting chamber. Following determination of the number of cells per sample, the remainder of the cells were pelleted in a microcentrifuge as described hereinabove, and the protein in the sample was determined by the method of Lowry. Thus, it was possible to derive from these two data sets the amount of protein per cell, which is expressed as nanograms of protein per cell, as indicated in Table 3: […]

Structure (SMILES)	block of [3H]myo-inositol uptake (myo-inositol transporter)	Maximal Transport Rate Vmax (myo-inositol transporter)	Ki (myo-inositol transporter)	Bound [3H]myo-inositol (incorporated into membranes) (PC12 cells [1]; Day 1 of treatment)	Free [3H]myo-inositol (cytoplasm) (PC12 cells [1]; Day 1 of treatment)	Bound [3H]myo-inositol (incorporated into membranes) (PC12 cells [1]; Day 3 of treatment)	Free [3H]myo-inositol (cytoplasm) (PC12 cells [1]; Day 3 of treatment)	Bound [3H]myo-inositol (incorporated into membranes) (PC12 cells [1]; Day 5 of treatment)	Free [3H]myo-inositol (cytoplasm) (PC12 cells [1]; Day 5 of treatment)	Bound [3H]myo-inositol (incorporated into membranes) (PC12 cells [1]; Day 7 of treatment)	Free [3H]myo-inositol (cytoplasm) (PC12 cells [1]; Day 7 of treatment)	effect on cell cycle / cell division (PC12 cells [2])	Cell size (protein per cell) (PC12 cells [2]; treatment duration 1 day)	Cell size (protein per cell) (PC12 cells [2]; treatment duration 3 days)	Cell size (protein per cell) (PC12 cells [2]; treatment duration 5 days)	Cell size (protein per cell) (PC12 cells [2]; treatment duration 7 days)	also measured
O[C@@H]1[C@@H](O)[C@H](O)[C@@H](F)[C@@H](O)[C@H]1O [3-deoxy-3-fluoro-myo-inositol]	did block	2.27 nmol/mg/h	250 µM	354 ± 10 DPM/10^6 cells	3326 ± 253 DPM/10^6 cells	761 ± 42 DPM/10^6 cells	2929 ± 189 DPM/10^6 cells	414 ± 52 DPM/10^6 cells	2900 ± 383 DPM/10^6 cells	676 ± 113 DPM/10^6 cells	4095 ± 161 DPM/10^6 cells	continued to increase steadily in size without undergoing cell division	0.086 ± 0.01 nanograms protein/cell	0.259 ± 0.01 nanograms protein/cell	0.320 ± 0.01 nanograms protein/cell	0.343 ± 0.03 nanograms protein/cell	potency in blocking myo-inositol transport relative to the 1-fluoro myo-inositol analog (myo-inositol transporter): 5.7 times; level of radioactivity-labeled myo-inositol incorporated into the cellular plasma membranes (PC12 cells [1]): quite low; cell size relative to control cells (PC12 cells [2]; by day seven): about 3.5 times
O[C@@H]1[C@@H](O)[C@@H](O)[C@@H](F)[C@H](O)[C@H]1O [1-deoxy-1-fluoro-myo-inositol]	did block	2.27 nmol/mg/h	1430 µM	392 ± 16 DPM/10^6 cells	8365 ± 787 DPM/10^6 cells	4614 ± 141 DPM/10^6 cells	4751 ± 291 DPM/10^6 cells	2143 ± 314 DPM/10^6 cells	4295 ± 627 DPM/10^6 cells	3726 ± 588 DPM/10^6 cells	7569 ± 757 DPM/10^6 cells	arrested in a pre-mitotic state (termed late G2)	0.082 ± 0.01 nanograms protein/cell	0.135 ± 0.01 nanograms protein/cell	0.160 ± 0.01 nanograms protein/cell	0.168 ± 0.02 nanograms protein/cell	affinity for the myo-inositol transporter, fold lower than the 3-fluoro-myo-inositol analog (myo-inositol transporter): 5.7 fold; cell size relative to controls (PC12 cells [2]; cells arrested in pre-mitotic state): approximately 2 fold
